In patent US8492310B2, “Herbicidal compositions containing benzoylpyrazole compounds” (priority 2008, dated 2013):
Read-outs that look alike come from different tables or passages of the source.

Tests used:
Type in all cases: in vivo
[1] = system: prickly sida (Sida spinosa L.); assay: Foliar treatment pot test, visual growth inhibition rate, prickly sida (SS); conditions: Sida spinosa, foliar, read-out: Growth inhibition rate (%) of SS Measured value; for inhibition at 63 g/ha / inhibition at 125 g/ha / inhibition at 250 g/ha: 504 h, 21 DAT
Text: (§1) When the herbicidal activity in a case where two active ingredients are combined, is larger than the simple sum of the respective herbicidal activities of the two active ingredients (the expected activity), it is called a synergistic effect. The activity expected by the combination of two active ingredients can be calculated as follows (Colby S. R., “Weed”, vol. 15, p. 20-22, 1967). E=α+β−(α×β÷100) where
(§2) Upland field soil was put into a 1/1,000,000 hectare pot, and seeds of various plants (barnyardgrass (Echinochloa crus-qalli L.), crabgrass (Digitaria sanguinalis L.), giant foxtail (Setaria faberi Herrm.), velvetleaf (Abutilon theophrasti MEDIC.) and prickly sida (Sida spinosa L.)) were sown. When the respective plants reached predetermined leaf stage, herbicidal compositions in predetermined amounts were diluted with water in an amount corresponding to 300 L/ha and applied for foliar treatment by a small sprayer.
(§3) Further, in accordance with the above Colby's formula, the growth inhibition rate (calculated value) was calculated. In Tables, with respect to the compound Q, Compound Nos. in Table 1 are described, and with respect to other herbicidal compounds, common names are described. Further, in Tables, barnyardgrass is represented by “EC”, crabgrass by “DS”, giant foxtail by “SF”, velvetleaf by “AT”, and prickly sida by “SS”.

[2] = system: barnyardgrass (Echinochloa crus-qalli L.); assay: Foliar treatment pot test, visual growth inhibition rate, barnyardgrass (EC); conditions: 4.0-5.0 leaf stage, read-out: Growth inhibition rate (%) of EC Measured value; for inhibition at 250 g/ha: 192 h, 8 DAT; for inhibition at 125 g/ha: 504 h, 21 DAT
Text: as §1, §2, §3

[3] = system: crabgrass (Digitaria sanguinalis L.); assay: Foliar treatment pot test, visual growth inhibition rate, crabgrass (DS); conditions: Digitaria sanguinalis, foliar, read-out: Growth inhibition rate (%) of DS Measured value; for inhibition at 175 g/ha: 504 h, 21 DAT; for inhibition at 375 g/ha: 528 h, 3.1-4.0 leaf stage, 22 DAT
In short: (§4)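 Seeds were sown in upland soil pots, and plants were sprayed on the foliage at a predetermined leaf stage with herbicidal compositions diluted in water at 300 L/ha. Growth inhibition was rated visually. Expected combination activity was calculated by Colby's formula to assess synergy.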

[4] = system: velvetleaf (Abutilon theophrasti MEDIC.); assay: Foliar treatment pot test, visual growth inhibition rate, velvetleaf (AT); conditions: Abutilon theophrasti, foliar, read-out: Growth inhibition rate (%) of AT Measured value; for inhibition at 300 g/ha: 3.1-3.4 leaf stage
In short: as §4

[5] = 336 h, 4.6-5.3 leaf stage, 14 DAT
[6] = 504 h, 3.0-3.8 leaf stage, 21 DAT
[7] = 504 h, 4.0-4.5 leaf stage, 21 DAT

SMILES: CCNc1nc(Cl)nc(NC(C)C)n1 [Atrazine, atrazine]
- inhibition at 63 g/ha ([1]; 3.0-3.3 leaf stage): 30%
- inhibition at 125 g/ha ([1]; 3.0-3.3 leaf stage): 45%
- inhibition at 250 g/ha ([1]; 3.0-3.3 leaf stage): 65%
- inhibition at 250 g/ha [2]: 10%
- inhibition at 125 g/ha [2]: 0%
- inhibition at 50 g/ha ([3]; 336 h, 4.0-4.5 leaf stage, 14 DAT, 50 g/ha): 20%
- inhibition at 400 g/ha ([3]; 336 h, 4.0-4.5 leaf stage, 14 DAT, 400 g/ha): 30%
- inhibition at 800 g/ha ([3]; 336 h, 4.0-4.5 leaf stage, 14 DAT, 800 g/ha): 40%
- inhibition at 500 g/ha ([3]; 336 h, 5.0-6.0 leaf stage, 14 DAT, 500 g/ha): 0%
- inhibition at 1000 g/ha ([3]; 336 h, 5.0-6.0 leaf stage, 14 DAT, 1000 g/ha): 10%
- inhibition at 2000 g/ha ([3]; 336 h, 5.0-6.0 leaf stage, 14 DAT, 2000 g/ha): 25%
- inhibition at 175 g/ha ([3]; 3.5-4.3 leaf stage): 0%
- inhibition at 375 g/ha [3]: 0%
- inhibition at 500 g/ha [4, 5]: 45%
- inhibition at 1000 g/ha [4, 5]: 60%
- inhibition at 2000 g/ha [4, 5]: 70%
- inhibition at 50 g/ha ([4]; 480 h, 3.1-3.5 leaf stage, 20 DAT, 50 g/ha): 30%
- inhibition at 100 g/ha ([4]; 480 h, 3.1-3.5 leaf stage, 20 DAT, 100 g/ha): 30%
- inhibition at 200 g/ha ([4]; 480 h, 3.1-3.5 leaf stage, 20 DAT, 200 g/ha): 35%
- inhibition at 400 g/ha ([4]; 480 h, 3.1-3.5 leaf stage, 20 DAT, 400 g/ha): 40%
- inhibition at 600 g/ha ([4]; 480 h, 3.1-3.5 leaf stage, 20 DAT, 600 g/ha): 80%
- inhibition at 800 g/ha ([4]; 480 h, 3.1-3.5 leaf stage, 20 DAT, 800 g/ha): 100%
- inhibition at 175 g/ha [4, 6]: 0%
- inhibition at 375 g/ha ([4]; 528 h, 4.0-4.4 leaf stage, 22 DAT, 375 g/ha): 25%

SMILES: CCNc1nc(Cl)nc(NC(C)(C)C)n1 [Terbuthylazine, terbuthylazine]
- inhibition at 100 g/ha ([1]; 480 h, 1.5-2.4 leaf stage, 20 DAT, 100 g/ha): 55%
- inhibition at 63 g/ha ([1]; 3.0-4.0 leaf stage): 0%
- inhibition at 125 g/ha ([1]; 3.0-4.0 leaf stage): 0%
- inhibition at 250 g/ha ([1]; 3.0-4.0 leaf stage): 20%
- inhibition at 250 g/ha [2]: 10%
- inhibition at 125 g/ha [2]: 0%
- inhibition at 300 g/ha ([3]; 336 h, 3.5-4.3 leaf stage, 14 DAT, 300 g/ha): 25%
- inhibition at 175 g/ha ([3]; 3.5-4.3 leaf stage): 0%
- inhibition at 375 g/ha [3]: 0%
- inhibition at 300 g/ha ([4]; 480 h, 20 DAT): 50%
- inhibition at 175 g/ha [4, 6]: 0%
- inhibition at 300 g/ha ([4]; 504 h, 21 DAT): 50%
- inhibition at 500 g/ha [4, 7]: 30%
- inhibition at 1000 g/ha [4, 7]: 45%
- inhibition at 2000 g/ha [4, 7]: 55%
- inhibition at 175 g/ha ([4]; 528 h, 4.0-4.4 leaf stage, 22 DAT): 15%
